The target of one assay is Rhesus PDE2A3 (Macaca mulatta, UniProt B3VTJ2). Briefly: PDE2 fluorescence polarization (IMAP FP) assay, rhesus PDE2A3. Conditions: Lab B, read-out: Rhesus PDE2 Ki (nM) Lab B. Format: biochemical, rhesus macaque. (In general: Polarisation of emitted light reports the rotation of a fluorescent probe.)
A further assay deals with human PDE2A1 (Homo sapiens (Human), UniProt O00408). Description: PDE selectivity IMAP FP assay, human PDE2A1. The class given is biochemical. To be noted: Human PDE2; Lab B; read-out: Human PDE2 Ki (nM) Lab B. A digest of the protocol: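 Compound titrations run against PDE2 in Tris HCl pH 7.2 buffer with MgCl2 and DTT for 60 min at room temperature, using 50 nM FAM-cAMP plus 1000 nM cGMP and enzyme giving 20% conversion.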
Chain of human PDE2A1 (O00408 other isoform, or with tags, fused parts or gaps): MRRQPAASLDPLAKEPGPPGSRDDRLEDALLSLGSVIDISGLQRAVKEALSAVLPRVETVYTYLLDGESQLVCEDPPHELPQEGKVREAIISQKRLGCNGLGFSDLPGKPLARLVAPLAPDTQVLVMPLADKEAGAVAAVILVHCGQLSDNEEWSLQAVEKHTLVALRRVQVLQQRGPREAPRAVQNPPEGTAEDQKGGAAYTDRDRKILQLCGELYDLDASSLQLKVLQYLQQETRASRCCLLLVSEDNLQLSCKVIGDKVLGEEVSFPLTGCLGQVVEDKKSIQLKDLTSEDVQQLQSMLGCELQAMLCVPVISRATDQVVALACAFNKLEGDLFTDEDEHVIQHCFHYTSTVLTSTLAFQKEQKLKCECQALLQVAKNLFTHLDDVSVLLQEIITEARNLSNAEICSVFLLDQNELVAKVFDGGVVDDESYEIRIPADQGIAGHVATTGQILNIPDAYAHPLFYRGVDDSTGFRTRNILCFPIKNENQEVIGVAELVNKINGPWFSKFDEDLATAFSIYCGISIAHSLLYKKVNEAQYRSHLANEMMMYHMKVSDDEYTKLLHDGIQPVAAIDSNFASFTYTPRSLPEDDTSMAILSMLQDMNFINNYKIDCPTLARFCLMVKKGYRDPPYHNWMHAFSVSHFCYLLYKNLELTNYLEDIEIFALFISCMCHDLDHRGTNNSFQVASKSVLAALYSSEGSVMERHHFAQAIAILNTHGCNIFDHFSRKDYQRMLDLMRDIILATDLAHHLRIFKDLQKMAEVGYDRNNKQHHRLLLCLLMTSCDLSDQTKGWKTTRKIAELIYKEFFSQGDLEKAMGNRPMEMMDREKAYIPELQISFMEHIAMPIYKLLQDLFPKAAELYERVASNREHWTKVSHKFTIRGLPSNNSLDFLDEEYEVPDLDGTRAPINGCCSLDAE

Chain of Rhesus PDE2A3 (B3VTJ2 1-941): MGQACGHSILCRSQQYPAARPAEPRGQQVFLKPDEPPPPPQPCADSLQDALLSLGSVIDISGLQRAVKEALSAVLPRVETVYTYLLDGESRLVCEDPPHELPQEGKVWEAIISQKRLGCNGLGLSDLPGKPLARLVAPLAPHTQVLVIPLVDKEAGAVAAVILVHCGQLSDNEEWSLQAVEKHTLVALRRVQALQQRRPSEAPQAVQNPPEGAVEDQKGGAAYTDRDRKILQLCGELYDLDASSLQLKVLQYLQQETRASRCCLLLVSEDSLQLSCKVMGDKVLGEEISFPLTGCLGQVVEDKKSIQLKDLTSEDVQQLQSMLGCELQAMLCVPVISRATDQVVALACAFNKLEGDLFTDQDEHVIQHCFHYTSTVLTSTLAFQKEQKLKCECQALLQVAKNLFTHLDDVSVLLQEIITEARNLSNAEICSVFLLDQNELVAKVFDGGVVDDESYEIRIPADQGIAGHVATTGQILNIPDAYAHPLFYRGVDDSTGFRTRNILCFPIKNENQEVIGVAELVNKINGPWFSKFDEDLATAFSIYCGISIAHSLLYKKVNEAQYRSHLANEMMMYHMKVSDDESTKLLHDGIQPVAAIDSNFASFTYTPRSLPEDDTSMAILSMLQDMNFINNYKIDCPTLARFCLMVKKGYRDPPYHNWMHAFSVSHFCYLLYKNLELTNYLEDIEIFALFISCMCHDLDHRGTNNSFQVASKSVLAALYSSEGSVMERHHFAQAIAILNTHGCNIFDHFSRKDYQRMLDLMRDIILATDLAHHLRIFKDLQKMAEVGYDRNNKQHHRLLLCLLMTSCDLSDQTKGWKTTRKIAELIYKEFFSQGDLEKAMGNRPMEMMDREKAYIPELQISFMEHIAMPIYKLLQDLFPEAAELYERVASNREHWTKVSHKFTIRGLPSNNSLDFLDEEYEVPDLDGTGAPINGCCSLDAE

By Ki is commonly meant a dissociation constant, usually derived from enzyme kinetics or from competition with a known ligand. For `CCC(c1ccc(C(F)(F)F)cc1)n1nc(CO)c2c(=O)[nH]c(N(C)C)nc21` (single isomer, unassigned) [Example 73, (S)- or (R)-6-(Dimethylamino)-3-(hydroxymethyl)-1-(1-(4-(trifluoromethyl)phenyl)propyl)-1H-pyrazolo[3,4-d]pyrimidin-4(5H)-one], the Ki at Rhesus PDE2A3 was determined as 0.25 nM; on human PDE2A1 it was 0.16 nM.
Consider `CN(C)c1nc2c(c(CO)nn2C(c2ccc(C(F)(F)F)cc2)C2CC2)c(=O)[nH]1` (single isomer, unassigned) [Example 74, (R)- or (S)-1-(Cyclopropyl(4-(trifluoromethyl)phenyl)methyl)-6-(dimethylamino)-3-(hydroxymethyl)-1H-pyrazolo[3,4-d]pyrimidin-4(5H)-one], for which the Ki on Rhesus PDE2A3 was 0.15 nM; at human PDE2A1, 0.17 nM.
In the case of `CN(C)c1nc2c(c(CO)nn2C(c2ccc(C(F)(F)F)cc2)C2CC2)c(=O)[nH]1` (single isomer, unassigned) [Example 75, (S)- or (R)-1-(Cyclopropyl(4-(trifluoromethyl)phenyl)methyl)-6-(dimethylamino)-3-(hydroxymethyl)-1H-pyrazolo[3,4-d]pyrimidin-4(5H)-one], the Ki at Rhesus PDE2A3 turned out to be 0.79 nM; on human PDE2A1, 1.1 nM.
`CC(C)c1ccc(C(C2CC2)n2nc(CO)c3c(=O)[nH]c(N(C)C)nc32)cc1` (single isomer, unassigned) [Example 76, (R)- or (S)-1-(Cyclopropyl(4-isopropylphenyl)methyl)-6-(dimethylamino)-3-(hydroxymethyl)-1H-pyrazolo[3,4-d]pyrimidin-4(5H)-one]: the Ki at Rhesus PDE2A3 was found to be 0.21 nM; at human PDE2A1 it was 0.22 nM.
Turning to `CC(C)c1ccc(C(C2CC2)n2nc(CO)c3c(=O)[nH]c(N(C)C)nc32)cc1` (single isomer, unassigned) [Example 77, (S)- or (R)-1-(Cyclopropyl(4-isopropxlphenyl)methyl)-6-(dimethylamino)-3-(hydroxymethyl)-1H-pyrazolo[3,4-d]pyrimidin-4(5H)-one], the Ki was 0.084 nM at Rhesus PDE2A3 and 0.069 nM at human PDE2A1.
For `CC(C)c1ccc(C(C(C)C)n2nc(CO)c3c(=O)[nH]c(N(C)C)nc32)cc1` (single isomer, unassigned) [Example 78, (R)- or (S)-6-(Dimethylamino)-3-(hydroxymethyl)-1-(1-(4-isopropylphenyl)-2-methylpropyl)-1H-pyrazolo[3,4-d]pyrimidin-4(5H)-one], in that order: 0.14 nM and 0.11 nM.
Take `CC(C)c1ccc(C(C(C)C)n2nc(CO)c3c(=O)[nH]c(N(C)C)nc32)cc1` (single isomer, unassigned) [Example 79, (S)- or (R)-6-(Dimethylamino)-3-(hydroxymethyl)-1-(1-(4-isopropylphenyl)-2-methylpropyl)-1H-pyrazolo[3,4-d]pyrimidin-4(5H)-one]: the results for the Ki at Rhesus PDE2A3 and on human PDE2A1 were 0.054 nM and 0.044 nM, respectively.
The like results for `CC(c1ccc(C(F)(F)F)cc1F)n1nc(CO)c2c(=O)[nH]c(N(C)C)nc21` (single isomer, unassigned) [Example 81, (S)- or (R)-6-(Dimethylamino)-1-(1-(2-fluoro-4-(trifluorornethyl)phenyl)ethyl)-3-(hyrdroxymethyl)-1H-pyrazolo[3,4-d]pyrimidin-4(5H)-one] were, in that order, 0.25 nM and 0.29 nM.
For `CC(c1ccc(C(F)F)cc1)n1nc(CO)c2c(=O)[nH]c(N(C)C)nc21` (single isomer, unassigned) [Example 83, (S)- or (R)-1-(1-(4-(Difluoromethyl)phenyl)ethyl)-6-(dimethylamino)-3-(hydroxymethyl)-1H-pyrazolo[3,4-d]pyrimidin-4(5H)-one], in that order: 1.1 nM and 0.86 nM.
In the case of `CC(c1ccc(OC(F)(F)F)c(F)c1)n1nc(CO)c2c(=O)[nH]c(N(C)C)nc21` (single isomer, unassigned) [Example 84, (R)- or (S)-6-(Dimethylamino)-1-(1-(3-fluoro-4-(trifluoromethoxy)phenyl)ethyl)-3-(hydroxymethyl)-1H-pyrazolo[3,4-d]pyrimidin-4(5H)-one], the Ki at Rhesus PDE2A3 turned out to be 1 nM; at human PDE2A1, 0.68 nM.
Regarding `CC(c1ccc(OC(F)(F)F)c(F)c1)n1nc(CO)c2c(=O)[nH]c(N(C)C)nc21` (single isomer, unassigned) [Example 85, (S)- or (R)-6-(Dimethylamino)-1-(1-(3-fluoro-4-(trifluoromethoxy)phenyl)ethyl)-3-(hydroxymethyl)-1H-pyrazolo[3,4-d]pyrimidin-4(5H)-one], the Ki worked out at 0.3 nM at Rhesus PDE2A3 and 0.24 nM on human PDE2A1.
The like results for `CN(C)c1nc2c(c(CO)nn2C(c2ccc(CC(F)(F)F)cc2)C2CC2)c(=O)[nH]1` (single isomer, unassigned) [Example 86, (R)- or (S)-1-(Cyclopropyl(4-(2,2,2-trifluoroethyl)phenyl)methyl)-6-(dimethylamino)-3-(hydroxymethyl)-1H-pyrazolo[3,4-d]pyrimidin-4(5H)-one] were, in that order, 0.91 nM and 0.57 nM.
For `CN(C)c1nc2c(c(CO)nn2C(c2ccc(CC(F)(F)F)cc2)C2CC2)c(=O)[nH]1` (single isomer, unassigned) [Example 87, (S)- or (R)-1-(Cyclopropyl(4-(2,2,2-trifluoroethyl)phenyl)methyl)-6-(dimethylainino)-3-(hydroxymethyl)-1H-pyrazolo[3,4-d]pyrimidin-4(5H)-one], in that order: 0.4 nM and 0.38 nM.
For `CC(C)C(c1ccc(C(F)F)cc1)n1nc(CO)c2c(=O)[nH]c(N(C)C)nc21` (single isomer, unassigned) [Example 90, (R)- or (S)-1-(1-(4-(Difluoromethyl)phenyl)-2-methylpropyl)-6-(dimethylamino)-3-(hydroxymethyl)-1H-pyrazolo[3,4-d]pyrimidin-4(5H)-one], in that order: 2.3 nM and 1.1 nM.
For `CC(C)C(c1ccc(C(F)F)cc1)n1nc(CO)c2c(=O)[nH]c(N(C)C)nc21` (single isomer, unassigned) [Example 91, (S)- or (R)-1-(1-(4-(Difluoromethyl)phenyl)-2-methylpropyl)-6-(dimethylamino)-3-(hydroxymethyl)-1H-pyrazolo[3,4-d]pyrimidin-4(5H)-one], the inhibition constant (Ki) at Rhesus PDE2A3 and at human PDE2A1 was 0.18 nM in each case.
For `CCC(c1ccc(C(F)F)cc1)n1nc(CO)c2c(=O)[nH]c(N(C)C)nc21` (single isomer, unassigned) [Example 93, (S)- or (R)-1-(1-(4-(Difluoromethyl)phenyl)propyl)-6-(dimethylamino)-3-(hydroxymethyl)-1H-pyrazolo[3,4-d]pyrimidin-4(5H)-one], the Ki on Rhesus PDE2A3 amounted to 0.55 nM; at human PDE2A1, 0.42 nM.
The like results for `CN(C)c1nc2c(c(CO)nn2C(c2ccc(CC(F)(F)F)c(F)c2)C2CC2)c(=O)[nH]1` (single isomer, unassigned) [Example 94, (R)- or (S)-1-(Cyclopropyl(3-fluoro-4-(2,2,2-trifluoroethyl)phenyl)methyl)-6-(dimethylamino)-3-(hydroxymethyl)-1H-pyrazolo[3,4-d]pyrimidin-4(5H)-one] were, in that order, 0.15 nM and 0.14 nM.
For `CN(C)c1nc2c(c(CO)nn2C(c2ccc(CC(F)(F)F)c(F)c2)C2CC2)c(=O)[nH]1` (single isomer, unassigned) [Example 95, (S)- or (R)-1-(Cyclopropyl(3-fluoro-4-(2,2,2-trifluoroethyl)phenyl)methyl)-6-(dimethylamino)-3-(hydroxymethyl)-1H-pyrazolo[3,4-d]pyrimidin-4(5H)-one], in that order: 0.44 nM and 0.39 nM.
The like results for `CCC(c1ccc(CC(F)(F)F)c(F)c1)n1nc(CO)c2c(=O)[nH]c(N(C)C)nc21` (single isomer, unassigned) [Example 97, (S)- or (R)-6-(Dimethylamino)-1-(1-(3-fluoro-4-(2,2,2-trifluoroethyl)phenyl)propyl)-3-(hydroxymethyl)-1H-pyrazolo[3,4-d]pyrimidin-4(5H)-one] were, in that order, 0.11 nM and 0.09 nM.
On to `CC(c1ccc(CC(F)(F)F)c(F)c1)n1nc(CO)c2c(=O)[nH]c(N(C)C)nc21` (single isomer, unassigned) [Example 100, (R)- or (S)-6-(Dimethylamino)-1-(1-(3-fluoro-4-(2,2,2-trifluoroethyl)phenyl)ethyl)-3-(hydroxymethyl)-1H-pyrazolo[3,4-d]pyrimidin-4(5H)-one], for which the Ki on Rhesus PDE2A3 turned out to be 1.1 nM; on human PDE2A1 it was 0.88 nM.
For the compound `CC(c1ccc(CC(F)(F)F)c(F)c1)n1nc(CO)c2c(=O)[nH]c(N(C)C)nc21` (single isomer, unassigned) [Example 101, (S)- or (R)-6-(Dimethylamino)-1-(1-(3-fluoro-4-(2,2,2-trifluoroethyl)phenyl)ethyl)-3-(hydroxymethyl)-1H-pyrazolo[3,4-d]pyrimidin-4(5H)-one], the Ki came to 0.35 nM at Rhesus PDE2A3 and 0.29 nM at human PDE2A1.
The like results for `CC(c1ccc(C(C)(F)F)cc1)n1nc(CO)c2c(=O)[nH]c(N(C)C)nc21` (single isomer, unassigned) [Example 103, (S)- or (R)-1-(1-(4-(1,1-Difluoroethyl)phenyl)ethyl)-6-(dimethylamino)-3-(hydroxymethyl)-1H-pyrazolo[3,4-d]pyrimidin-4(5H)-one] were, in that order, 0.3 nM and 0.28 nM.
The like results for `CC(c1ccc(C(F)F)c(F)c1)n1nc(CO)c2c(=O)[nH]c(N(C)C)nc21` (single isomer, unassigned) [Example 105, (S)- or (R)-1-(1-(4-(Difluoromethyl)-3-fluorophenyl)ethyl)-6-(dimethylamino)-3-(hydroxymethyl)-1H-pyrazolo[3,4-d]pyrimidin-4(5H)-one] were, in that order, 1.6 nM and 1.1 nM.

The record behind these values is patent publication US10174037B2, “Dihydropyrazolopyrimidinone compounds as PDE2 inhibitors” (Merck Sharp & Dohme Corp., priority 2015, dated 2019).
